The term MIC denotes the least concentration at which growth counts as inhibited.

The source of these data is ChEMBL document CHEMBL3751688, “Synthesis, in vitro antimycobacterial evaluation and docking studies of some new 5,6,7,8-tetrahydropyrido[4',3':4,5]thieno[2,3-d]pyrimidin-4(3H)-one schiff bases” (Bioorg Med Chem Lett, 2016).

Structures are written as SMILES. Converted amounts (≈) assume the structure as drawn.

Assay [1] deals with Mycobacterium tuberculosis. The assay can be described thus: Antimycobacterial activity against isoniazid-resistant Mycobacterium tuberculosis after 14 days by broth microdilution method. Conditions: 336 h. Type of assay: functional. On the technique in general: Dilution methods test growth across graded concentrations, often in twofold steps.
Assay [2] concerns Mycobacterium tuberculosis. The assay can be described thus: Antimycobacterial activity against isoniazid-resistant Mycobacterium tuberculosis after 21 days by broth microdilution method. The assay is classed as functional. The conditions noted are these: 504 h.

Turning to `Cc1nc2sc3c(c2c(=O)n1/N=C/c1ccc(C#N)cc1)CCN(Cc1ccccc1)C3`, the MIC in assay [1] and in assay [2] was 20 µM (≈ 8.79 µg/mL) throughout.

Regarding `N#Cc1ccc(/C=N/n2cnc3sc4c(c3c2=O)CCN(Cc2ccccc2)C4)cc1`, the MIC in assay [1] and in assay [2] was 9 µM (≈ 3.83 µg/mL) throughout.

Turning to `O=c1c2c3c(sc2ncn1/N=C/c1ccc(Cl)cc1)CN(Cc1ccccc1)CC3`, the MIC in assay [1] and in assay [2] was 20 µM (≈ 8.7 µg/mL) throughout.

For the compound `Cc1nc2sc3c(c2c(=O)n1/N=C/c1ccc(Cl)cc1)CCN(Cc1ccccc1)C3`, the MIC in assay [1] and in assay [2] was 8 µM (≈ 3.59 µg/mL) throughout.

As to `COc1ccc(/C=N/n2cnc3sc4c(c3c2=O)CCN(Cc2ccccc2)C4)cc1`, the MIC in assay [1] and in assay [2] was 20 µM (≈ 8.61 µg/mL) throughout.

Regarding `O=c1c2c3c(sc2ncn1/N=C/c1cccs1)CN(Cc1ccccc1)CC3`, the MIC in assay [1] and in assay [2] was 22 µM (≈ 8.94 µg/mL) each time.

Take `CC[C@@H](CO)NCCN[C@@H](CC)CO` [ETHAMBUTOL]: the MIC in assay [1] and in assay [2] was 4 µM (≈ 0.817 µg/mL) throughout.

For the compound `NNC(=O)c1ccncc1` [ISONIAZID], the MIC in assay [1] and in assay [2] was > 8 µM each time.

In the case of `CO[C@H]1/C=C/O[C@@]2(C)Oc3c(C)c(O)c4c(O)c(c(/C=N/N5CCN(C)CC5)c(O)c4c3C2=O)NC(=O)/C(C)=C\C=C\[C@H](C)[C@H](O)[C@@H](C)[C@@H](O)[C@@H](C)[C@H](OC(C)=O)[C@@H]1C` [RIFAMPIN], the MIC in assay [1] and in assay [2] was 2 µM (≈ 1.65 µg/mL) in each case.

For the compound `CN[C@@H]1[C@H](O[C@H]2[C@H](O[C@H]3[C@H](O)[C@@H](O)[C@H](N=C(N)N)[C@@H](O)[C@@H]3N=C(N)N)O[C@@H](C)[C@]2(O)C=O)O[C@@H](CO)[C@H](O)[C@H]1O` [STREPTOMYCIN], the MIC in assay [1] and in assay [2] was 2 µM (≈ 1.16 µg/mL) each time.
